# pIC50: −log10 of the molar value.
# Target: Fibroblast growth factor receptor 4 (Homo sapiens, UniProt P22455)
# Assay: Biochemical Kinase Assay: Liquid handling and incubation steps were done on an Innovadyne Nanodrop Express equipped with a robotic arm (Thermo CatX, Caliper Twister II) and an incubator (Liconic STX40, Thermo Cytomat 2C450). The assay plates were prepared by addition of 50 nl per well of compound solution in 90% DMSO. The kinase reactions were started by stepwise addition of 4.5 ul per well of …
# Sequence of Fibroblast growth factor receptor 4 (P22455 whole entry): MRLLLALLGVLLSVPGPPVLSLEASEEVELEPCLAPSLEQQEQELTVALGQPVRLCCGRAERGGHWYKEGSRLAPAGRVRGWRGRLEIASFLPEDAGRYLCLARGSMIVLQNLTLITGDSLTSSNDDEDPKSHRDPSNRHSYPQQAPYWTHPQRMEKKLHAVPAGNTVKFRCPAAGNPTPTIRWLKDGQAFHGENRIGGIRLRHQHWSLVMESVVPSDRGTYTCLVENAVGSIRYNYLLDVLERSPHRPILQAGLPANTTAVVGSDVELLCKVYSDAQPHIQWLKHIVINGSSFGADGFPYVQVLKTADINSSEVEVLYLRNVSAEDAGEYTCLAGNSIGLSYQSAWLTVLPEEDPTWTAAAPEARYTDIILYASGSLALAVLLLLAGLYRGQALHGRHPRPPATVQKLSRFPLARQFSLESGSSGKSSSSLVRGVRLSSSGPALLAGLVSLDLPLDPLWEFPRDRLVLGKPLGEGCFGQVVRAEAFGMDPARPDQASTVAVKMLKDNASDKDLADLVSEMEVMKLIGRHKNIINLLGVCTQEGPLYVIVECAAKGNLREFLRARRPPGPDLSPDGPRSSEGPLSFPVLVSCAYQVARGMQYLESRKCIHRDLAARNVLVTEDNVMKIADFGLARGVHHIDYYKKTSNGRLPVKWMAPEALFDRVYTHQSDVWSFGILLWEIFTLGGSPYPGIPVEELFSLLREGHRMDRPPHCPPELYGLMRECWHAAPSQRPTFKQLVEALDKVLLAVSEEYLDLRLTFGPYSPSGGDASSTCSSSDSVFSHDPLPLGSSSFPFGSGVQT
structure (smiles),measurement,value
CC(C)Oc1cc(NC(=O)N2CCCc3cc(CN(C)C(=O)CO)c(C=O)nc32)ncc1C#N,pIC50,9.52

# Source: ChEMBL document CHEMBL3886554, “Ring-fused bicyclic pyridyl derivatives as FGFR4 inhibitors” (2016)
